Laboratory results taken from ChEMBL document CHEMBL3352247, “Synthesis and antimycobacterial evaluation of 5-alkylamino-N-phenylpyrazine-2-carboxamides” (Bioorg Med Chem, 2015).
≈ marks a conversion by molar mass, not a printed value. Calls of active or inactive are those of the source. The rule behind the calls is not given here.

How the values were obtained:
Lichtheimia corymbifera = test: Antifungal activity against Absidia corymbifera 272 after 24 to 48 hrs by two-fold dilution method; type: functional, organism-based
[1] = tested on: Staphylococcus epidermidis; test: Antibacterial activity against Staphylococcus epidermidis H 6966/08 clinical isolate after 24 to 48 hrs by broth microdilution method; type: functional, organism-based
Trichosporon asahii = test: Antifungal activity against Trichosporon asahii 1188 after 24 to 48 hrs by two-fold dilution method; type: functional, organism-based
[2] = Antimycobacterial activity against Mycobacterium avium subsp. avium Chester CNCTC My 80/72 after 5 days by AlamarBlue assay; type: functional; conditions: Chester CNCTC My 80/72, 120 h
Enterococcus sp. [3] = test: Antibacterial activity against Enterococcus sp. after 24 to 48 hrs by broth microdilution method; type: functional
Candida albicans = test: Antifungal activity against Candida albicans ATCC 44859 after 24 to 48 hrs by two-fold dilution method; type: functional, organism-based
Pichia kudriavzevii = test: Antifungal activity against Candida krusei E28 after 24 to 48 hrs by two-fold dilution method; type: functional, organism-based
[4] = tested on: Mycobacterium tuberculosis; test: Antimycobacterial activity against Mycobacterium tuberculosis H37Rv CNCTC My 331/88 after 10 to 14 days by AlamarBlue assay; type: functional
Enterococcus sp. [5] = test: Antibacterial activity against Enterococcus sp. J 14365/08 clinical isolate after 24 to 48 hrs by broth microdilution method; type: functional, organism-based
Candida tropicalis = test: Antifungal activity against Candida tropicalis 156 after 24 to 48 hrs by two-fold dilution method; type: functional, organism-based
Escherichia coli = test: Antibacterial activity against Escherichia coli CCM 4517 after 24 to 48 hrs by broth microdilution method; type: functional, organism-based
Staphylococcus aureus [6] = test: Antibacterial activity against Staphylococcus aureus CCM 4516/08 after 24 to 48 hrs by broth microdilution method; type: functional, organism-based
Klebsiella pneumoniae [7] = test: Antibacterial activity against Klebsiella pneumoniae D 11750/08 clinical isolate after 24 to 48 hrs by broth microdilution method; type: functional, organism-based
Pseudomonas aeruginosa = test: Antibacterial activity against Pseudomonas aeruginosa CCM 1961 after 24 to 48 hrs by broth microdilution method; type: functional, organism-based
Nakaseomyces glabratus = test: Antifungal activity against Candida glabrata 20/I after 24 to 48 hrs by two-fold dilution method; type: functional, organism-based
Aspergillus fumigatus = test: Antifungal activity against Aspergillus fumigatus 231 after 24 to 48 hrs by two-fold dilution method; type: functional, organism-based
Mycobacterium kansasii = test: Antimycobacterial activity against Mycobacterium kansasii CNCTC My 235/80 after 5 to 7 days by AlamarBlue assay; type: functional
Staphylococcus aureus [8] = test: Antibacterial activity against methicillin-resistant Staphylococcus aureus H 5996/08 clinical isolate after 24 to 48 hrs by broth microdilution method; type: functional, organism-based
[9] = tested on: Trichophyton mentagrophytes; test: Antifungal activity against Trichophyton mentagrophytes 445 after 72 to 120 hrs by two-fold dilution method; type: functional, organism-based
Klebsiella pneumoniae [10] = test: Antibacterial activity against ESBL-positive Klebsiella pneumoniae J 14368/08 clinical isolate after 24 to 48 hrs by broth microdilution method; type: functional, organism-based

CCCCCCCCNc1cnc(C(=O)Nc2ccccc2)cn1
Activity (Lichtheimia corymbifera): inactive
Activity [1]: inactive
Activity (Trichosporon asahii): inactive
MIC [2]: > 100 µg/mL
MIC (Enterococcus sp. [3]): 62.5 µM (≈ 20.4 µg/mL)
Activity (Candida albicans): inactive
Activity (Pichia kudriavzevii): inactive
MIC [4]: 9.6 µM
Activity (Enterococcus sp. [5]): inactive
Activity (Candida tropicalis): inactive
Activity (Escherichia coli): inactive
Activity (Staphylococcus aureus [6]): inactive
Activity (Klebsiella pneumoniae [7]): inactive
Activity (Pseudomonas aeruginosa): inactive
Activity (Nakaseomyces glabratus): inactive
Activity (Aspergillus fumigatus): inactive
MIC (Mycobacterium kansasii): > 100 µg/mL
Activity (Staphylococcus aureus [8]): inactive
Activity [9]: inactive
Activity (Klebsiella pneumoniae [10]): inactive

CCCCCCCNc1cnc(C(=O)Nc2ccccc2Cl)cn1
Activity (Lichtheimia corymbifera): inactive
Activity [1]: inactive
Activity (Trichosporon asahii): inactive
MIC [2]: > 25 µg/mL
Activity (Enterococcus sp. [3]): Active
Activity (Candida albicans): inactive
Activity (Pichia kudriavzevii): inactive
MIC [4]: 36 µM
Activity (Enterococcus sp. [5]): inactive
Activity (Candida tropicalis): inactive
Activity (Escherichia coli): inactive
Activity (Staphylococcus aureus [6]): inactive
Activity (Klebsiella pneumoniae [7]): inactive
Activity (Pseudomonas aeruginosa): inactive
Activity (Nakaseomyces glabratus): inactive
Activity (Aspergillus fumigatus): inactive
MIC (Mycobacterium kansasii): > 25 µg/mL
Activity (Staphylococcus aureus [8]): inactive
Activity [9]: inactive
Activity (Klebsiella pneumoniae [10]): inactive

CCCNc1cnc(C(=O)Nc2ccccc2)cn1
Activity (Lichtheimia corymbifera): inactive
Activity [1]: inactive
Activity (Trichosporon asahii): inactive
MIC [2]: > 100 µg/mL
Activity (Enterococcus sp. [3]): Active
Activity (Candida albicans): inactive
Activity (Pichia kudriavzevii): inactive
MIC [4]: 12.2 µM
Activity (Enterococcus sp. [5]): inactive
Activity (Candida tropicalis): inactive
Activity (Escherichia coli): inactive
Activity (Staphylococcus aureus [6]): inactive
Activity (Klebsiella pneumoniae [7]): inactive
Activity (Pseudomonas aeruginosa): inactive
Activity (Nakaseomyces glabratus): inactive
Activity (Aspergillus fumigatus): inactive
MIC (Mycobacterium kansasii): 48.8 µM
Activity (Staphylococcus aureus [8]): inactive
Activity [9]: inactive
Activity (Klebsiella pneumoniae [10]): inactive

CCCCCCNc1cnc(C(=O)Nc2ccccc2Cl)cn1
Activity (Lichtheimia corymbifera): inactive
Activity [1]: inactive
Activity (Trichosporon asahii): inactive
MIC [2]: > 100 µg/mL
Activity (Enterococcus sp. [3]): Active
Activity (Candida albicans): inactive
Activity (Pichia kudriavzevii): inactive
MIC [4]: > 100 µg/mL
Activity (Enterococcus sp. [5]): inactive
Activity (Candida tropicalis): inactive
Activity (Escherichia coli): inactive
Activity (Staphylococcus aureus [6]): inactive
Activity (Klebsiella pneumoniae [7]): inactive
Activity (Pseudomonas aeruginosa): inactive
Activity (Nakaseomyces glabratus): inactive
Activity (Aspergillus fumigatus): inactive
MIC (Mycobacterium kansasii): > 100 µg/mL
Activity (Staphylococcus aureus [8]): inactive
Activity [9]: inactive
Activity (Klebsiella pneumoniae [10]): inactive

CCCNc1cnc(C(=O)Nc2ccccc2Cl)cn1
Activity (Lichtheimia corymbifera): inactive
Activity [1]: inactive
Activity (Trichosporon asahii): inactive
MIC [2]: > 100 µg/mL
Activity (Enterococcus sp. [3]): Active
Activity (Candida albicans): inactive
Activity (Pichia kudriavzevii): inactive
MIC [4]: > 100 µg/mL
Activity (Enterococcus sp. [5]): inactive
Activity (Candida tropicalis): inactive
Activity (Escherichia coli): inactive
Activity (Staphylococcus aureus [6]): inactive
Activity (Klebsiella pneumoniae [7]): inactive
Activity (Pseudomonas aeruginosa): inactive
Activity (Nakaseomyces glabratus): inactive
Activity (Aspergillus fumigatus): inactive
MIC (Mycobacterium kansasii): > 100 µg/mL
Activity (Staphylococcus aureus [8]): inactive
Activity [9]: inactive
Activity (Klebsiella pneumoniae [10]): inactive
